# Results published in paper PMC9061999, “Application of the Adverse Outcome Pathway Concept to In Vitro Nephrotoxicity Assessment: Kidney Injury due to Receptor-Mediated Endocytosis and Lysosomal Overload as a Case Study” (Frontiers in Toxicology, 2022).
# Test system: RPTEC/TERT1 cells
# Experiment: LAMP-2 immunofluorescence (KE1, disturbance of lysosomal function)
# Assay type: cell-based, human
# Settings: for BMC10, KE1: in vitro POD from KE dose-response, LAMP-2 intensity, RPTEC/TERT1, 24 h treatment, n = 3 independent experiments; for MOE, lowest across KEs: in vitro PODs in RPTEC/TERT1 vs human plasma concentrations at therapeutic doses; for MOE, KE1: margin of exposure: BMC10 in RPTEC/TERT1 vs human plasma/serum concentration (cmax or css)
# Procedure: For immunocytochemistry experiments, cells were seeded into 8-well chamber slides (Ibidi) at a density of 140 cells per µL in 300 µL growth medium and were allowed to grow for 48 h (NRK-52E) or 10 d (RPTEC/TERT1) respectively. For treatment, stock solutions (1,000 µM) of compounds dissolved in growth medium were freshly prepared and serial dilutions were made before exposure of cells for 24 h. After treatment, cells were washed twice with 150 µL PBS and fixed with 150 µL 4% paraformaldehyde in 1 x PBS for 10 min at room temperature. After fixation, cells were washed 10 min with 150 µL PBS on an orbital shaker followed by permeabilization with 150 µL 0.2% Triton X-100 in 1 x PBS for 5 min at room temperature on an orbital shaker. The permeabilized cells were washed twice with 1 x PBS (150 µL) for 10 min at room temperature on an orbital shaker and then incubated with 150 µL 5% BSA dissolved in 1 x PBS for 1 h at room temperature to block unspecific binding sites. After blocking, 100 µL primary antibody diluted 1:100 in 1% BSA in 1 x PBS were directly pipetted onto the cells and incubated overnight at 4°C. The following antibodies were employed for NRK-52E cells: Anti-LAMP-1 monoclonal IgG1 kappa mouse antibody (Santa Cruz; sc-20011), anti-Cathepsin D mouse monoclonal IgG2 kappa antibody (Santa Cruz; sc-377124); for RPTEC/TERT1 cells: Anti-LAMP-2 monoclonal mouse antibody (Santa Cruz; sc-18822), anti-Cathepsin D mouse monoclonal IgG2b kappa (Novus Biologicals; NBP1-04278); for both cell lines anti-megalin mouse monoclonal IgG1 antibody (Santa Cruz, sc-515772).
# After incubation with primary antibody, cells were washed three times for 15 min with 0.2% Tween in 1 x PBS (150 µL) on an orbital shaker. Cells were incubated for 1 h at room temperature with 100 µL CFL 488-conjugated mouse IgG kappa binding protein (1:50) (m-IgGκ BP-CFL 488; Santa Cruz, sc-516176). After incubation the cells were washed three times for 15 min with 0.2% Tween in 1 x PBS on an orbital shaker and once with 150 µL sterile water. Phalloidin-tetramethylrhodamine B isothiocyanate (TRITC) was used to stain the cytoskeleton and was diluted in 100% methanol to a stock concentration of 0.1 mg/ml and further diluted in 1 x PBS to a working concentration of 0.095 µM. After cells were washed once with 1 x PBS for 10 min at room temperature 150 µL phalloidin-TRITC working solution was added and the cells were incubated on an orbital shaker at room temperature for 60–90 min. After incubation, phalloidin-TRITC solution was aspirated, and the cells were washed once with 1 x PBS. Chamber slides were allowed to dry for 15 min at room temperature. To preserve fluorescence 50–100 µL DAPI mounting medium (Vectashield®; Vectorlab, Biozol) was added to the cells and chamber slides were stored at 4°C in the dark until image acquisition.
# Images were taken with a TCS SP5 II confocal microscope with an HCX PL APO lambda blue 63.0 × 1.40 OIL UV objective (Leica Microsystems, Wetzlar, GER) (n = 10 cells/treatment group). The maximum excitation and emission settings for image acquisition were the following: Vectashield® antifade mounting medium with DAPI (λex 360 nm & λem 460 nm), for CFL 488-conjugated mouse IgG kappa binding protein (λex 490 nm & λem 525 nm) and phalloidin-TRITC (λex 545 nm & λem 573 nm). Before quantification, images were blinded and randomized. Quantification of fluorescence intensity was performed using NIH Image® software. Using the tool “Plot Profile” we generated a two-dimensional graph of the intensity of pixels along a reference line (6.35 µm) drawn across the cytoplasm of cells. The mean values of the pixel intensities were automatically calculated by the software and imported in Excel for further processing.
Substance,"BMC10, KE1 [µM]","MOE, lowest across KEs","MOE, KE1"
Colistin,4.3,0.5,0.5 – 10.2
Polymyxin B,4.2,1,1.0 - 7.4
